The text below walks through data of EP4775582A1, “MACROCYCLIC COMPOUND AND ANTIBODY-DRUG CONJUGATE THEREOF” (Genfleet Therapeutics (Shanghai) Inc., priority 2023, dated 2025).

Read-outs that look alike come from different tables or passages of the source.

One series concerns the target KRAS WT-cRAF (Homo sapiens, UniProt P01116+P62937). The series can be described thus: Assay for binding of KRAS to cRAF (HTRF, with Cyclophilin A), KRAS WT.
A short description of series [1]: Human liver microsomal stability experiment. The format is in vitro ADME. The note with it: human liver microsomes; for CLint scaled: 45 mg/g, 20.7 g/kg scaling. The procedure: This experiment was intended to investigate the metabolic stability of the test compounds in human liver microsomes. The materials used in the experiment included 10 mM solutions of the test compounds and the control sample, human liver microsomes, and reduced nicotinamide adenine dinucleotide phosphate (NADPH) powder. In the experiment, a 100 mM potassium phosphate buffer was used as the buffer system.
The liver microsome working solution was prepared by diluting the liver microsome stock solution to 0.75 mg/mL using the 100 mM potassium phosphate buffer. Then, 5 µL of the 10 mM stock solution of the test compound was taken, and 195 µL of methanol was added. The mixture was well mixed to prepare a working solution A with a concentration of 0.25 mM. Subsequently, the working solution A was diluted to 1.5 µM using the liver microsome working solution to prepare a compound-liver microsome mixed solution. Additionally, NADPH powder was dissolved in 100 mM potassium phosphate buffer to prepare a 6 mM NADPH solution. The compound-liver microsome mixed solution was dispensed into a 96-well plate at 30 µL/well, with labeled time points of 0 min, 30 min, and 60 min. For 0-min samples, 180 µL of acetonitrile containing 100 ng/mL tolbutamide and 15 µL of the NADPH solution were added directly. The 96-well plate and the NADPH solution were then preheated under a 37 °C water bath for 5 min. After the preheating, 15 µL of the NADPH solution was added to each of the 30-min and 60-min sample wells. The plate was gently shaken for mixing and then incubated under the 37 °C water bath for the corresponding time. After the incubation was completed, 180 µL of acetonitrile containing 100 ng/mL tolbutamide was added to each sample well. The plate was sealed with a sealing film, shaken for 10 min (800 rpm/min), and then centrifuged for 15 min (4000 rpm). After the centrifugation, 50 µL of the supernatant was taken and added to a 96-well plate containing 150 µL of deionized water, and then the plate was sealed and shaken for 10 min (800 rpm) for uniform mixing. Subsequently, sample analysis was performed using liquid chromatography-tandem mass spectrometry (LC-MS/MS). […] For humans, the microsome protein-to-liver weight ratio was 45 mg/g, and the liver-to-body weight ratio was 20.7 g/kg.

Another series relates to AsPC-1 cells. The series can be described thus: 3D cell proliferation assay (CellTiter Glo-3D), AsPC-1. The format is cell-based, human. The essentials:
(§1)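 Cells seeded at 800 per well (AsPC-1, NCI-H441) in 2% FBS medium and incubated overnight at 37 °C, 5% CO2. Compounds added next day from 10× stock, then 5 days' further culture. Viability read by CellTiter-Glo luminescence; IC50 from four-parameter fit of inhibition versus log concentration.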

In a further series the target is KRAS G12V-cRAF (Homo sapiens, UniProt P01116+P62937, G12V). As to the kind of experiment: Assay for binding of KRAS to cRAF (HTRF, with Cyclophilin A), KRAS G12V.
In the next series the test system is NCI-H441 cells. The series can be described thus: 3D cell proliferation assay (CellTiter Glo-3D), NCI-H441. The format is cell-based, human. The note with it: NCI-H441 cells (KRAS G12V), 2% FBS, 5 days, read-out: H441 AP IC50. The essentials:
as §1

The subject of the next series is AsPC-1 p-ERK. The series can be described thus: Cell p-ERK assay (HTRF), AsPC-1 cells. Type of series: cell-based, human. An outline of the steps:
(§2)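 AsPC-1 (10000/well) or NCI-H441 (20000/well) cells were seeded overnight and then exposed to compound for 3 h at 37 °C. Lysates were probed for ERK phospho-T202/Y204 by HTRF with a 4-hour antibody incubation. IC50 values came from four-parameter fits of inhibition against log concentration.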

The test system of another series is H441 p-ERK. As to the kind of experiment: Cell p-ERK assay (HTRF), NCI-H441 cells. The note with it: NCI-H441 cells (KRAS G12V), 3 h incubation. Type of series: cell-based, human. An outline of the steps:
as §2

The nature of series [2]: Solubility experiment (HPLC, external standard). The format is physicochemical. The essentials:
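Solid compound (about 1 mg per 1 mL medium) was shaken at 37 °C for 24 h in pH 1.2, 4.5 or 7.4 media, then centrifuged and the supernatant diluted with acetonitrile/water 50/50. Concentration in μg/mL was found by HPLC against an external standard prepared from a DMSO stock.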

Where [3] appears, read: read-out: KRAS WT-cRAF binding assay, GPPNP-KRAS WT, IC50 values.
Where [4] appears, read: read-out: KRAS G12V-cRAF binding assay, GPPNP-KRAS G12V, IC50 values.

Sequence of KRAS G12V-cRAF (P01116 1-188 isoform P01116-2 G12V): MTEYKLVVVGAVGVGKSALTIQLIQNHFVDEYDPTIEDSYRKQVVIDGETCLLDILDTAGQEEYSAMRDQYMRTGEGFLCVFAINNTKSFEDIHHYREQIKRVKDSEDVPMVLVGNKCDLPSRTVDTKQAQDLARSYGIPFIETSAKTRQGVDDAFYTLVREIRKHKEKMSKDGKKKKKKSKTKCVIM
Sequence of KRAS G12V-cRAF (P62937 whole entry): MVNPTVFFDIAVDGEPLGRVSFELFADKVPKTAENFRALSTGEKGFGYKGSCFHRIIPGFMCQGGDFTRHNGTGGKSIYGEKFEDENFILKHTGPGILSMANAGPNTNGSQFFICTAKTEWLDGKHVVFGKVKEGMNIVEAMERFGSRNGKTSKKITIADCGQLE
Sequence of KRAS WT-cRAF (P01116 1-188 isoform P01116-2): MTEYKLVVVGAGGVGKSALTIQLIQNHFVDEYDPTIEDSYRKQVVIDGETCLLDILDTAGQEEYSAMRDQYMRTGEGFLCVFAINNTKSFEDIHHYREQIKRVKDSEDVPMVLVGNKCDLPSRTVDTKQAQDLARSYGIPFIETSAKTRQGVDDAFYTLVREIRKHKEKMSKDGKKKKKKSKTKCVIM
Sequence of KRAS WT-cRAF (P62937 whole entry): as the sequence (P62937 whole entry) above
Description for KRAS G12V-cRAF: (§3) The plate was centrifuged at 1000 rpm for 1 min and then incubated in the thermostatic incubator at 20 °C for 30 min. […] The plate was centrifuged at 1000 rpm for 1 min and then incubated in the thermostatic incubator at 20 °C for 60 min. […] The working solution was added to the aforementioned assay plate at 5 µL/well. The plate was centrifuged at 1000 rpm for 1 min and then incubated in the thermostatic incubator at 20 °C for 60 min.
Description for KRAS WT-cRAF: as §3

`CCn1c(-c2cc(C#CCN3CCC(C#N)CC3)cnc2C(C)OC)c2c3cc(ccc31)-c1csc(n1)CC(NC(=O)C1C3COCC31)C(=O)N1CCCC(N1)C(=O)OCC(C)(C)C2` (atropisomer, axis not shown; (Ra)) [Compound Z56, (1R,5S,6r)-N-((6^3S,4S,Z)-(Ra)-1^2-(5-(3-(4-cyanopiperidin-1-yl)prop-1-yn-1-yl)-2-((S)-1-methoxyethyl)-pyridin-3-yl)-1^1-ethyl-10,10-dimethyl-5,7-dioxo-6^1,6^2,6^3,6^4,6^5,6^6-hexahydro-1^1H-8-oxa-2(4,2)-thiazola-1(5,3)-indola-6(1,3)-pyridazinacycloundecaphane-4-yl)-3-oxabicyclo[3.1.0]hexane-6-carboxamide]: the IC50 at KRAS WT-cRAF (KRAS WT-cRAF binding assay(nM), GPPNP-KRAS WT, IC50 values) worked out at 13.9 nM; with AsPC-1 cells (Homo sapiens, ASPC1, 120 h, AsPC-1 cells (KRAS G12D), 3D, 2% FBS, 5 days, read-out: AsPC-1 AP IC50), 0.09 nM; on KRAS G12V-cRAF (KRAS G12V-cRAF binding assay(nM), GPPNP-KRAS G12V, IC50 values) it was 11.9 nM; with NCI-H441 cells (Homo sapiens, 120 h), 0.14 nM; in the series with AsPC-1 p-ERK (Homo sapiens, ASPC1, AsPC-1 cells (KRAS G12D), 3 h incubation, read-out: AsPC-1 p-ERK IC50), 0.07 nM; in the series with H441 p-ERK (Homo sapiens), 0.12 nM. This molecule gave a half-life at 1 µM in series [1] (NADPH, 37 °C) of 23.3 min. The molecule further came in with a CLint scaled in series [1] of 68.9 mL/min/kg.
For the molecule `CCn1c(-c2cc(C#CCN3CCC(C#N)(CN)CC3)cnc2[C@H](C)OC)c2c3cc(ccc31)-c1coc(n1)C[C@H](NC(=O)[C@H]1[C@H](C)[C@@H]1C)C(=O)N1CCC[C@H](N1)C(=O)OCC(C)(C)C2` (atropisomer, axis not shown; (Ra)) [Compound Z182], the IC50 at KRAS WT-cRAF (setting [3]) came to 34.5 nM; on KRAS G12V-cRAF (setting [4]), 13 nM. The half-life in series [1] (NADPH, 37 °C) was 16.4 min. Besides, in series [1], the CLint scaled turned out to be 97.9 mL/min/kg.
For `CCn1c(-c2cc(C#CCN3CCC(C#N)(CN)CC3)cnc2[C@H](C)OC)c2c3cc(ccc31)-c1csc(n1)C[C@H](NC(=O)[C@H]1[C@H](C)[C@@H]1C)C(=O)N1CCC[C@H](N1)C(=O)OCC(C)(C)C2` (atropisomer, axis not shown; (Ra)) [Compound Z181, (1r,2R,3S)-N-((6^3S,4S,Z)-1^2-(Ra)-(5-(3-(4-(aminomethyl)-4-cyanopiperidin-1-yl)prop-1-yn-1-yl)-2-((S)-1-methoxyethyl)pyridin-3-yl)-1^1-ethyl-10,10-dimethyl-5,7-dioxo-6^1,6^2,6^3,6^4,6^5,6^6-hexahydro-1^1H-8-oxa-2(4,2)-thiazola-1(5,3)-indola-6(1,3)-pyridazinacycloundecaphan-4-yl)-2,3-dimethylcyclopropane-1-carboxamide] the same measures were 36.4 nM, 13.1 nM, 43.4 min and 36.9 mL/min/kg.
With `CCn1c(-c2cc(C#CCN3CCS(=O)(=O)CC3)cnc2[C@H](C)NC)c2c3cc(ccc31)-c1csc(n1)C[C@H](NC(=O)[C@H]1[C@H](C)[C@@H]1C)C(=O)N1CCC[C@H](N1)C(=O)OCC(C)(C)C2` (atropisomer, axis not shown; (Ra)) [Compound Z66, (1r,2R,3S)-N-((6^3S,4S,Z)-(Ra)-1^2-(5-(3-(1,1-dioxidothiomorpholino)prop-1-yn-1-yl)-2-((S)-1-(methylamino)ethyl)pyridin-3-yl)-1^1-ethyl-10,10-dimethyl-5,7-dioxo-6^1,6^2,6^3,6^4,6^5,6^6-hexahydro-1^1H-8-oxa-2(4,2)-thiazola-1(5,3)-indola-6(1,3)-pyridazinacycloundecaphane-4-yl)-2,3-dimethylcyclopropane-1-carboxamide], the IC50 is 19.5 nM at KRAS WT-cRAF (setting [3]); 0.12 nM in the series on AsPC-1 cells (Homo sapiens, ASPC1, 120 h, read-out: AsPC-1 AP IC50(nM)); 8.54 nM at KRAS G12V-cRAF (setting [4]); 0.11 nM with NCI-H441 cells (Homo sapiens, 120 h); 0.3 nM in the series on AsPC-1 p-ERK (Homo sapiens, ASPC1, 3 h, read-out: AsPC-1 p-ERK IC50(nM)); 0.32 nM in the series on H441 p-ERK (Homo sapiens). Also, the “Solubility at pH 7.4 (µg/mL)” value in series [2] (ph 7.4 medium, pH 7.4, 1440 min) came out at 66.54 µg/mL.
`CCn1c(-c2cc(C#CCN3CCN(C(=O)CO)CC3)cnc2[C@H](C)OC)c2c3cc(ccc31)-c1csc(n1)C[C@H](NC(=O)[C@H]1[C@@H]3COC[C@@H]31)C(=O)N1CCC[C@H](N1)C(=O)OCC(C)(C)C2` (atropisomer, axis not shown; (Ra)) [Compound Z34, (1R,5S,6r)-N-((6^3S,4S,Z)-1^1-ethyl-1^2-(5-(3-(4-(2-hydroxyacetyl)piperazin-1-yl)prop-1-yn-1-yl)-(Ra)-2-((S)-1-methoxyethyl)pyridin-3-yl)-10,10-dimethyl-5,7-dioxo-6^1,6^2,6^3,6^4,6^5,6^6-hexahydro-1^1H-8-oxa-2(4,2)-thiazola-1(5,3)-indola-6(1,3)-pyridazinacycloundecaphane-4-yl)-3-oxabicyclo[3.1.0]hexane-6-carboxamide]: the concentration for half-maximal inhibition (IC50) amounted to 25.3 nM on KRAS WT-cRAF (setting [3]); 0.77 nM with AsPC-1 cells (AsPC-1 cells (KRAS G12D), 3D, 2% FBS, 5 days, read-out: AsPC-1 AP IC50); 17.1 nM at KRAS G12V-cRAF (setting [4]); 0.47 nM in the series with NCI-H441 cells; 0.28 nM in the series on AsPC-1 p-ERK (AsPC-1 cells (KRAS G12D), 3 h incubation, read-out: AsPC-1 p-ERK IC50); 0.27 nM in the series with H441 p-ERK. Further, the “Solubility at pH 7.4 (µg/mL)” value in series [2] (pH 7.4 medium, 37 °C, 24 h) turned out to be 16.22 µg/mL.
Take `CCn1c(-c2cc(C#CCN3CCC(C#N)CC3)cnc2[C@H](C)OC)c2c3cc(ccc31)-c1csc(n1)C[C@H](NC(=O)[C@H]1[C@H](C)[C@@H]1C)C(=O)N1CCC[C@H](N1)C(=O)OCC(C)(C)C2` (atropisomer, axis not shown; (Ra)) [Compound Z282, (1r,2R,3S)-N-((6^3S,4S,Z)-1^2-(5-(3-(4-cyanopiperidin-1-yl)prop-1-yn-1-yl)-(Ra)-2-((S)-1-methoxyethyl)pyridin-3-yl)-1^1-ethyl-10,10-dimethyl-5,7-dioxo-6^1,6^2,6^3,6^4,6^5,6^6-hexahydro-1^1H-8-oxa-2(4,2)-thiazola-1(5,3)-indola-6(1,3)-pyridazinacycloundecaphan-4-yl)-2,3-dimethylcyclopropane-1-carboxamide]: the IC50 came to 14.8 nM at KRAS WT-cRAF (setting [3]) and 5.48 nM at KRAS G12V-cRAF (setting [4]). For the same molecule, the half-life in series [1] (NADPH, 37 °C) was 18.1 min. In series [1], this molecule returned an intrinsic clearance (CLint scaled) of 88.5 mL/min/kg.
